T/C data for 23 compounds are collected here from PubChem BioAssay AID330 (DTP/NCI, 2004).

Structures are written as SMILES. Where “and” joins values, the source holds several entries; their conditions need not be identical. Identical values can stand only once. Toxic doses and inconclusive results are not listed.

The experiment concerns P388 leukemia ip, CD2F1 mice, survival T/C. The experiment is described as follows: NCI In Vivo Anticancer Drug Screen. Data for tumor model P388 Leukemia (intraperitoneal) in CD2F1 (CDF1) mice. The following applies: endpoint: median survival time, higher = longer survival. Summed up:
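Mice carrying the transplanted tumor received test compound or vehicle. Survival was recorded in each group, and the value is the treated-group measurement divided by that of the vehicle-treated control group.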

[1] abbreviates: dose: 50.0 mg/kg/injection, schedule: Q01DX009 (ip), vehicle: saline.
The mark [2] stands for this setting: dose: 100.0 mg/kg/injection, schedule: Q01DX009 (ip), vehicle: saline.
The mark [3] stands for this setting: dose: 200.0 mg/kg/injection, schedule: Q01DX009 (ip), vehicle: saline.
[4] abbreviates: dose: 50.0 mg/kg/injection, schedule: Q01DX005 (ip), vehicle: saline with Tween-80.
[5] abbreviates: dose: 100.0 mg/kg/injection, schedule: Q01DX005 (ip), vehicle: saline with Tween-80.
[6] abbreviates: dose: 200.0 mg/kg/injection, schedule: Q01DX005 (ip), vehicle: saline with Tween-80.
[7] abbreviates: dose: 12.5 mg/kg/injection, schedule: Q01DX009 (ip), vehicle: saline.
The mark [8] stands for this setting: dose: 25.0 mg/kg/injection, schedule: Q01DX009 (ip), vehicle: saline.
[9] abbreviates: dose: 50.0 mg/kg/injection, schedule: Q01DX009 (ip), vehicle: saline with Tween-80.
Where [10] appears, read: dose: 100.0 mg/kg/injection, schedule: Q01DX009 (ip), vehicle: saline with Tween-80.
The mark [11] stands for this setting: dose: 200.0 mg/kg/injection, schedule: Q01DX009 (ip), vehicle: saline with Tween-80.
The mark [12] stands for this setting: dose: 50.0 mg/kg/injection, schedule: Q01DX005 (ip), vehicle: Klucel (hydroxypropylcellulose) (HPC).
[13] abbreviates: dose: 100.0 mg/kg/injection, schedule: Q01DX005 (ip), vehicle: Klucel (hydroxypropylcellulose) (HPC).
Where [14] appears, read: dose: 200.0 mg/kg/injection, schedule: Q01DX005 (ip), vehicle: Klucel (hydroxypropylcellulose) (HPC).
Setting [15] is: dose: 50.0 mg/kg/injection, schedule: Q01DX009 (ip), vehicle: Klucel (hydroxypropylcellulose) (HPC).
Where [16] appears, read: dose: 100.0 mg/kg/injection, schedule: Q01DX009 (ip), vehicle: Klucel (hydroxypropylcellulose) (HPC).
Setting [17] is: dose: 200.0 mg/kg/injection, schedule: Q01DX009 (ip), vehicle: Klucel (hydroxypropylcellulose) (HPC).

As for `c1ccc(C2=C(c3ccccc3)c3ccccc3CO2)cc1`, the T/C (dose: 100.0 mg/kg/injection, schedule: Q01DX001 (ip), vehicle: saline) was 105 % of control; the T/C (dose: 200.0 mg/kg/injection, schedule: Q01DX001 (ip), vehicle: saline) was 100 % of control; the T/C (dose: 400.0 mg/kg/injection, schedule: Q01DX001 (ip), vehicle: saline) is 100 % of control.

For `c1ccc2c(C3CO3)c3ccccc3c(C3CO3)c2c1` (stereo not given), the T/C was 99 % of control under setting [1], 116 % of control under setting [2] and 116 % of control under setting [3].

For `Cc1[nH]c(C(=O)O)cc(=O)c1C`, the T/C is, setting by setting: (dose: 25.0 mg/kg/injection, schedule: Q01DX009 (ip), vehicle: other) 103 % of control; (dose: 50.0 mg/kg/injection, schedule: Q01DX009 (ip), vehicle: other) 103 % of control; (dose: 100.0 mg/kg/injection, schedule: Q01DX009 (ip), vehicle: other) 101 % of control; (dose: 200.0 mg/kg/injection, schedule: Q01DX009 (ip), vehicle: other) 99 % of control; (dose: 400.0 mg/kg/injection, schedule: Q01DX009 (ip), vehicle: other) 97 % of control.

Turning to `CCOc1cccc(/C=N/NC(=O)C(=O)Nc2ccc(Cl)c([N+](=O)[O-])c2)c1O`, the T/C is, setting by setting: under setting [4], 100 % of control; under setting [5], 89 % of control; under setting [6], 90 % of control.

Turning to `Cc1cc(O)c(C=Nc2ccccc2C)c(=O)o1`, the T/C is, setting by setting: under setting [4], 102 % of control; under setting [5], 103 % of control; under setting [6], 105 % of control.

For the compound `c1ccc(-n2ccnc2C2C3CCN2CC3)cc1` (stereo not given), the T/C was 104 % of control under setting [7]; 104 % of control under setting [8]; 111 % of control and 97 % of control under setting [1].

On to `C[Si](C)(Cn1ccc(=O)n(C[Si](C)(C)c2ccccc2)c1=O)c1ccccc1`, for which the T/C is, setting by setting: (dose: 81.0 mg/kg/injection, schedule: Q04DX002 (ip), vehicle: saline with Tween-80) 100 % of control; (dose: 162.0 mg/kg/injection, schedule: Q04DX002 (ip), vehicle: saline with Tween-80) 104 % of control; (dose: 324.0 mg/kg/injection, schedule: Q04DX002 (ip), vehicle: saline with Tween-80) 106 % of control.

For `O=C1OC(C(Cl)(Cl)Cl)NC1Cc1ccccc1` (stereo not given), the T/C runs as follows: under setting [9], 107 % of control; under setting [10], 103 % of control; under setting [11], 110 % of control.

As for `O=[N+]([O-])c1ccc(Cl)c2c([N+](=O)[O-])cccc12`, the T/C under setting [9] is 102 % of control and the T/C under setting [10] was 110 % of control.

For the compound `[O-][n+]1cc(Cl)cc(Cl)c1`, the T/C is 100 % of control and 106 % of control under setting [8]; 108 % of control and 96 % of control under setting [1]; 100 % of control and 96 % of control under setting [2]; 99 % of control and 102 % of control under setting [3]; 99 % of control and 96 % of control (dose: 400.0 mg/kg/injection, schedule: Q01DX009 (ip), vehicle: saline).

Consider `CCc1cccc(NC(=O)SCc2ccccc2)c1`, for which the T/C is 94 % of control under setting [9] and 98 % of control under setting [10].

For the compound `O=C(Nc1ccc(Cl)cc1)Nc1ccc(Cl)nn1`, the T/C was 101 % of control (dose: 3.12 mg/kg/injection, schedule: Q04DX002 (ip), vehicle: Klucel (hydroxypropylcellulose) (HPC)); 102 % of control (dose: 6.25 mg/kg/injection, schedule: Q04DX002 (ip), vehicle: Klucel (hydroxypropylcellulose) (HPC)); 98 % of control (dose: 12.5 mg/kg/injection, schedule: Q04DX002 (ip), vehicle: Klucel (hydroxypropylcellulose) (HPC)); 115 % of control (dose: 25.0 mg/kg/injection, schedule: Q04DX002 (ip), vehicle: Klucel (hydroxypropylcellulose) (HPC)); 90 % of control (dose: 50.0 mg/kg/injection, schedule: Q04DX002 (ip), vehicle: Klucel (hydroxypropylcellulose) (HPC)); 88 % of control and 95 % of control (dose: 100.0 mg/kg/injection, schedule: Q04DX002 (ip), vehicle: Klucel (hydroxypropylcellulose) (HPC)).

In the case of `O=C(NN1C(=O)C=C(O)/C1=C\c1ccccc1)c1ccccc1`, the T/C is, setting by setting: (dose: 25.0 mg/kg/injection, schedule: Q01DX005 (ip), vehicle: Klucel (hydroxypropylcellulose) (HPC)) 99 % of control and 104 % of control; under setting [12], 101 % of control and 104 % of control and 111 % of control; under setting [13], 103 % of control and 105 % of control (2×); under setting [14], 100 % of control and 105 % of control and 121 % of control.

With `Cc1cc(C2(c3cc(C)c(O)c(C)c3)c3ccccc3-c3ccccc32)cc(C)c1O`, the T/C was 99 % of control under setting [15], 99 % of control under setting [16] and 96 % of control under setting [17].

For the compound `COc1cc2c(c(OC)c1OC)-c1ccc(OC)c(=O)cc1C([N+](C)(C)C)CC2` (stereo not given), the T/C is, setting by setting: (dose: 2.5 mg/kg/injection, schedule: Q01DX009 (ip), vehicle: Klucel (hydroxypropylcellulose) (HPC)) 94 % of control; (dose: 5.0 mg/kg/injection, schedule: Q01DX009 (ip), vehicle: Klucel (hydroxypropylcellulose) (HPC)) 100 % of control; (dose: 10.0 mg/kg/injection, schedule: Q01DX009 (ip), vehicle: Klucel (hydroxypropylcellulose) (HPC)) 103 % of control; (dose: 20.0 mg/kg/injection, schedule: Q01DX009 (ip), vehicle: Klucel (hydroxypropylcellulose) (HPC)) 100 % of control.

Turning to `CN(N=O)C(=O)NCCSSCCNC(=O)N(C)N=O`, the T/C was 115 % of control (dose: 20.0 mg/kg/injection, schedule: Q04DX003 (ip), vehicle: saline with Tween-80); 177 % of control (dose: 40.0 mg/kg/injection, schedule: Q01DX009 (ip), vehicle: saline with Tween-80); 155 % of control (dose: 80.0 mg/kg/injection, schedule: Q04DX003 (ip), vehicle: saline with Tween-80).

For `CN(C)c1ccc(/C=N/c2nc(-c3ccccc3)cs2)cc1`, the T/C under setting [1] is 115 % of control, the T/C under setting [2] was 111 % of control and the T/C under setting [3] was 101 % of control.

Consider `OC1C=CC2C(CC1)C1(c3ccccc3)OC2(c2ccccc2)c2ccccc21` (stereo not given), for which the T/C under setting [12] is 100 % of control, the T/C under setting [13] was 98 % of control and the T/C under setting [14] was 99 % of control.

For `OC1CCCSc2ccccc21` (stereo not given), the T/C by setting is: (dose: 25.0 mg/kg/injection, schedule: Q01DX009 (ip), vehicle: saline with Tween-80) 100 % of control and 95 % of control; (dose: 50.0 mg/kg/injection, schedule: Q01DX009 (ip), vehicle: saline + alcohol) 99 % of control; under setting [9], 100 % of control and 97 % of control; (dose: 100.0 mg/kg/injection, schedule: Q01DX009 (ip), vehicle: saline + alcohol) 96 % of control; under setting [10], 98 % of control; (dose: 200.0 mg/kg/injection, schedule: Q01DX009 (ip), vehicle: saline + alcohol) 105 % of control. The T/C under setting [11] was 118 % of control and the T/C (dose: 400.0 mg/kg/injection, schedule: Q01DX009 (ip), vehicle: saline + alcohol) is 103 % of control.

Take `O=P1(O)OC[C@H]2CCC[C@@H]2O1`: the T/C is 106 % of control (dose: 60.0 mg/kg/injection, schedule: Q01DX005 (ip), vehicle: saline) and 97 % of control (dose: 120.0 mg/kg/injection, schedule: Q01DX005 (ip), vehicle: saline).

Regarding `SC1(S)CN2CCC1CC2`, the T/C runs as follows: (dose: 6.25 mg/kg/injection, schedule: Q01DX009 (ip), vehicle: saline) 104 % of control; under setting [7], 100 % of control.

`Cc1n[nH]c(=S)n1N`: the T/C under setting [15] was 94 % of control; the T/C under setting [16] was 93 % of control; the T/C under setting [17] was 95 % of control; the T/C (dose: 400.0 mg/kg/injection, schedule: Q01DX009 (ip), vehicle: Klucel (hydroxypropylcellulose) (HPC)) was 88 % of control.

Turning to `O=c1[nH]c2cc(Cl)ccc2nc1/C=C(\O)c1cccc2ccccc12`, the T/C by setting is: (dose: 60.0 mg/kg/injection, schedule: Q01DX005 (ip), vehicle: saline with Tween-80) 89 % of control; (dose: 120.0 mg/kg/injection, schedule: Q01DX005 (ip), vehicle: saline with Tween-80) 88 % of control; (dose: 240.0 mg/kg/injection, schedule: Q01DX005 (ip), vehicle: saline with Tween-80) 90 % of control.
